Reference: patent publication US20260085062A1, “NOVEL COMPOUNDS AS CK2 INHIBITORS” (Cambridge Enterprise Limited, priority 2022, published 2026)
pIC50: −log10 of the molar value.

Experiments:
CK2α = molecular target: T1, CK2α (Homo sapiens, UniProt P68400); test: Biochemical assay for inhibitors of CK2α kinase activity (ADP-Glo); conditions: 0.2 nM CK2α, 50 μM peptide substrate, 15 μM ATP, read-out: Assay 1: CK2α Enzyme IC50
T1 construct: CK2α (residues 2-329) was produced in Escherichia coli BL21 (DE3) for kinase activity screening; His6 (N, cleaved yes); made in house; host or cells: Escherichia coli BL21 (DE3)
T1 sequence (P68400 2-329): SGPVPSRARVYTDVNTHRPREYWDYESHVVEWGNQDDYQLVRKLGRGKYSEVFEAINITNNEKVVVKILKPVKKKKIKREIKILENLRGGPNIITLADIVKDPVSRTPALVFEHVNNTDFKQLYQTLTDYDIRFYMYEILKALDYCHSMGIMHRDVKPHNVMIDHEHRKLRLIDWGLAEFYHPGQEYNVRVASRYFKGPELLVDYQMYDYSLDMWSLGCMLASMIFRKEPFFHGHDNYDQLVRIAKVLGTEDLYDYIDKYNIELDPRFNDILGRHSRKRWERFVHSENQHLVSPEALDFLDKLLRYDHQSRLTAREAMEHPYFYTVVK

CLK2 = molecular target: T2, CLK2 (Homo sapiens, UniProt P49760); test: Biochemical assay for inhibitors of CLK2 kinase activity (ADP-Glo); conditions: 20 nM CLK2, 50 μM peptide substrate, 100 μM ATP, read-out: Assay 2: CLK2 Enzyme IC50
T2 construct: purchased Carna Biosciences 04-127
T2 sequence (P49760 whole entry): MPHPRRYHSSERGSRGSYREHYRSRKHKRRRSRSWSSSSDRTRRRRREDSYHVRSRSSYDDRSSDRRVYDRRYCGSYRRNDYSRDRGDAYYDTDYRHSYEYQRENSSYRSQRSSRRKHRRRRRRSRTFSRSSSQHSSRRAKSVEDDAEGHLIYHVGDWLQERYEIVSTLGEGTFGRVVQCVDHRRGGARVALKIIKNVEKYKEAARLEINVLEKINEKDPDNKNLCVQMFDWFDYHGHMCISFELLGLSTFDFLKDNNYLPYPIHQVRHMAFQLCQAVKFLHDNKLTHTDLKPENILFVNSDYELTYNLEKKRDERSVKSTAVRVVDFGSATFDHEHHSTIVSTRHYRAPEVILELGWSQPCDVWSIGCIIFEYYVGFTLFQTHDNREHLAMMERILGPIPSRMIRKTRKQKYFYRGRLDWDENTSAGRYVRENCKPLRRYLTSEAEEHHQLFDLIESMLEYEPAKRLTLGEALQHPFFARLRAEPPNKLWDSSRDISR

intracellular CK2α = molecular target: T3, intracellular CK2α (Homo sapiens, UniProt P19784); test: Cell-based NanoBRET assay for inhibitor binding to intracellular CK2α; conditions: HCT116 cells transiently transfected with CSNK2A2-NanoLuc fusion vector; Tracer K-5; 2 h; read-out: Assay 3: NanoBRET ™ assay for binding to intracellular CK2α
T3 construct: host or cells: HCT116 (ATCC CCL-247)
T3 sequence (P19784 whole entry, the tested form may be a part): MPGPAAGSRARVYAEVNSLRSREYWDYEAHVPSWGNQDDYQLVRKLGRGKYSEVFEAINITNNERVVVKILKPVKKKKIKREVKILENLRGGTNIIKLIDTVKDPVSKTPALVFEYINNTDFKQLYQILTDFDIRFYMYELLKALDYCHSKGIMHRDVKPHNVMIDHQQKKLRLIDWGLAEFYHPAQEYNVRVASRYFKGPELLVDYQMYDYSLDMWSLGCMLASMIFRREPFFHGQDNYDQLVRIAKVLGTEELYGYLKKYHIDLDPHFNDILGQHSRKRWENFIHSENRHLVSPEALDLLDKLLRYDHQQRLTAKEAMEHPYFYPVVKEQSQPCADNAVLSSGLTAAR
Method in brief: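 Living cells expressing NanoLuc-CK2α fusion were given a fixed tracer concentration, and compounds competitively displaced the reversibly bound tracer. Donor (450 nm) and acceptor (610 or 630 nm) emissions were read; BRET ratio = (acceptor/donor)×1,000, giving apparent intracellular affinity.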

Compound	pIC50 (CK2α)	pIC50 (CLK2)	pIC50 (intracellular CK2α)
CC(C)(C#N)c1cc(NCCOCCCCNCc2cc(CO)cc(OC(F)(F)F)c2)c2cn[nH]c2c1 [Example 206, 2-(4-((2-(4-((3-(hydroxymethyl)-5-(trifluoromethoxy)benzyl)amino)butoxy)ethyl)amino)-1H-indazol-6-yl)-2-methylpropanenitrile]	7.19	5.65	6.23
O=C(CCNCc1ccc(OC(F)(F)F)c(Cl)c1)NCCCNCc1cc(-n2cnnc2)cc2[nH]ncc12 [Example 172, N-(3-(((6-(4H-1,2,4-triazol-4-yl)-1H-indazol-4-yl)methyl)amino)propyl)-3-((3-chloro-4-(trifluoromethoxy)benzyl)amino)propanamide]	6.90	4.35	< 4.30
O=C(CCNCc1ccc(OC(F)(F)F)c(Cl)c1)NCCCNc1cc(-c2ccncc2F)cc2[nH]ncc12 [Example 162, 3-((3-chloro-4-(trifluoromethoxy)benzyl)amino)-N-(3-((6-(3-fluoropyridin-4-yl)-1H-indazol-4-yl)amino)propyl)propanamide]	8.19	6.09	6.40
O=C(Cc1nnc(CCNCc2ccc(OC(F)(F)F)c(Cl)c2)[nH]1)Nc1cc(-n2cnnc2)cc2[nH]ncc12 [Example 65, N-(6-(4H-1,2,4-triazol-4-yl)-1H-indazol-4-yl)-2-(5-(2-((3-chloro-4-_(trifluoromethoxy)benzyl)amino)ethyl)-4H-1,2,4-triazol-3-yl)acetamide]	6.79	5.38	< 4.30
FC(F)(F)c1ccc2[nH]c(CNCCCCOCCNc3cc(-c4cnoc4)cc4[nH]ncc34)cc2c1 [Example 97, 6-(isoxazol-4-yl)-N-(2-(4-(((5-(trifluoromethyl)-1H-indol-2-yl)methyl)amino)butoxy)ethyl)-1H-indazol-4-amine]	8.85	6.98	6.49
C[C@H](COCCCCNCc1cc(CO)cc(OC(F)(F)F)c1)Nc1cc(-c2cnns2)cc2[nH]ncc12 [Example 208, (R)-(3-(((4-(2-((6-(1,2,3-thiadiazol-5-yl)-1H-indazol-4-yl)amino)propoxy)butyl)amino)methyl)-5-(trifluoromethoxy)phe-nyl)methanol]	8.05	7.16	7.16
Cc1nc[nH]c1-c1cc(NCCCNC(=O)CCNCc2ccc(-c3ccccc3)c(Cl)c2)c2cn[nH]c2c1 [Example 91, 3-(((2-chloro-[1,1′-biphenyl]-4-yl)methyl)amino)-N-(3-((6-(4-methyl-1H-imidazol-5-yl)-1H-indazol-4-yl)amino)propyl)propanamide]	8.38	6.01	5.34
Clc1ccc2nc(CNCCCCOCCNc3cc(-n4cnnc4)cc4[nH]ncc34)[nH]c2c1 [Example 23, N-(2-(4-(((6-chloro-1H-benzo[d]imidazol-2-yl)methyl)amino)butoxy)ethyl)-6-(4H-1,2,4-triazol-4-yl)-1H-indazol-4-amine]	7.70	7.06	4.76
OCc1cc(Cl)cc(CNCCCCOC2CN(c3cc(-c4cnoc4)cc4[nH]ncc34)C2)c1 [Example 136, (3-chloro-5-(((4-((1-(6-(isoxazol-4-yl)-1H-indazol-4-yl)azetidin-3-yl)oxy)butyl)amino)methyl)phenyl)methanol]	7.48	6.91	5.47
CNc1n[nH]c2cc(-n3cnnc3)cc(NCCCNC(=O)CCNCc3ccc(OC(F)(F)F)c(Cl)c3)c12 [Example 191, 3-((3-chloro-4-(trifluoromethoxy)benzyl)amino)-N-(3-((3-(methylamino)-6-(4H-1,2,4-triazol-4-yl)-1H-indazol-4-yl)amino)propyl)propanamide]	9.24	6.88	6.07
OCc1cc(CNCCCCOC2CN(c3cc(-c4cnoc4)cc4[nH]ncc34)C2)cc(C(F)(F)F)c1 [Example 120, (3-(((4-((1-(6-(isoxazol-4-yl)-1H-indazol-4-yl)azetidin-3-yl)oxy)butyl)amino)methyl)-5-(trifluoromethyl)phenyl)methanol]	7.07	6.85	5.49
O=C(CCNCc1ccc(OC(F)(F)F)c(Cl)c1)NCCCNc1cc(-n2cnnc2)cc2cn[nH]c12 [Example 83, N-(3-((5-(4H-1,2,4-triazol-4-yl)-1H-indazol-7-yl)amino)propyl)-3-((3-chloro-4-(trifluoromethoxy)benzyl)amino)propanamide]	8.59	5.96	5.65
FC(F)(F)Oc1ccc(CNCCCNCCCOc2cc(-n3cnnc3)cc3[nH]ncc23)cc1Cl [Example 67, N1-(3-((6-(4H-1,2,4-triazol-4-yl)-1H-indazol-4-yl)oxy)propyl)-N3-(3-chloro-4-(trifluoromethoxy)benzyl)propane-1,3-diamine]	6.56	5.38	4.86
COC(=O)CCc1cc(NCCOCCCCNCc2cc3cc(C(F)(F)F)ccc3[nH]2)c2cn[nH]c2c1 [Example 88, methyl 3-(4-((2-(4-(((5-(trifluoromethyl)-1H-indol-2-yl)methyl)amino)butoxy)ethyl)amino)-1H-indazol-6-yl)propanoate]	< 6.00	4.38	< 4.30
O=C(CCNCc1ccc(-c2ccccc2)c(Cl)c1)NCCCNc1cc(-c2ccncc2)cc2[nH]ncc12 [Example 1, 3-(((2-Chloro-[1,1′-biphenyl]-4-yl)methyl)amino)-N-(3-((6-(pyridin-4-yl)-1H-indazol-4-yl)amino)propyl)propanamide]	8.86	6.65	6.91
O=C(CCNCc1ccc(OC2CCC2)c(CO)c1)NCCCNc1cc(-n2cnnc2)cc2[nH]ncc12 [Example 41, N-(3-((6-(4H-1,2,4-triazol-4-yl)-1H-indazol-4-yl)amino)propyl)-3-((4-cyclobutoxy-3-(hydroxymethyl)benzyl)amino)propanamide]	9.24	7.11	5.12
NC(=O)c1cc(NCCCNC(=O)CCNCc2ccc(-c3ccccc3)c(Cl)c2)c2cn[nH]c2c1 [Example 2, 4-((3-(3-(((2-chloro-[1,1′-biphenyl]-4-yl)methyl)amino)propanamido)propyl)amino)-1H-indazole-6-carboxamide]	7.90	5.91	5.23
O=C(CCNCc1ccc(-c2ccccc2)c(Cl)c1)NCCCNc1cc(-c2cnoc2)cc2[nH]ncc12 [Example 28, 3-(((2-chloro-[1,1′-biphenyl]-4-yl)methyl)amino)-N-(3-((6-(isoxazol-4-yl)-1H-indazol-4-yl)amino)propyl)propanamide]	9.27	6.97	7.15
c1cc2[nH]c(CNCCCCOCCOc3cc(-n4cnnc4)cc4[nH]ncc34)cc2cc1OC1CCC1 [Example 118, 4-(2-((6-(4H-1,2,4-triazol-4-yl)-1H-indazol-4-yl)oxy)ethoxy)-N-((5-cyclobutoxy-1H-indol-2-yl)methyl)butan-1-amine]	9.07	5.96	6.69
N#Cc1n[nH]cc1-c1cc(NCCCNC(=O)CCNCc2ccc(-c3ccccc3)c(Cl)c2)c2cn[nH]c2c1 [Example 7, 3-(((2-chloro-[1,1′-biphenyl]-4-yl)methyl)amino)-N-(3-((6-(3-cyano-1H-pyrazol-4-yl)-1H-indazol-4-yl)amino)propyl)propanamide]	9.60	7.16	6.83
c1cc2[nH]c(CNCCCCOCCNc3cc(-n4cnnc4)cc4[nH]ncc34)cc2cc1OC1CCC1 [Example 53, N-(2-(4-(((5-cyclobutoxy-1H-indol-2-yl)methyl)amino)butoxy)ethyl)-6-(4H-1,2,4-triazol-4-yl)-1H-indazol-4-amine]	9.48	6.93	6.80
C[C@@H](CCCOCCNc1cc(-c2cnoc2)cc2[nH]ncc12)NCc1cc(OC(F)(F)F)cc(C(N)=O)c1 [Example 196, (S)-3-(((5-(2-((6-(isoxazol-4-yl)-1H-indazol-4-yl)amino)ethoxy)pentan-2-yl)amino)methyl)-5-(trifluoromethoxy)benzamide]	7.91	6.52	7.26
O=C(CCNCc1ccc(-c2ccccc2)c(Cl)c1)NCCCNc1cc(-c2nn[nH]n2)cc2[nH]ncc12 [Example 79, N-(3-((6-(2H-tetrazol-5-yl)-1H-indazol-4-yl)amino)propyl)-3-(((2-chloro-[1,1′-biphenyl]-4-yl)methyl)amino)propanamide]	9.48	6.39	5.29
Fc1cc(CNCCCCOC2CN(c3cc(-n4cnnc4)cc4[nH]ncc34)C2)ccc1OC(F)(F)F [Example 129, 4-((6-(6-(4H-1,2,4-triazol-4-yl)-1H-indazol-4-yl)azetidine-3-yl)oxy)-N-(3-fluoro-4-(trifluoromethoxy)benzyl)butan-1-amine]	7.63	6.31	< 4.30
